Test system: 454973-116-R2-J3-PDC complex spheroid viability
Assay: Anticancer human tumor 454973-116-R2-J3-PDC patient-derived pancreatic carcinoma cell line growth inhibition [POLQ]
Details: for IC50: curve of first compound; for viability, T/C: stronger effect = lower value
In short: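 Three-cell-type spheroids modelling solid tumor plus stroma served as the readout system; POL inhibitors were tested individually and in combination, concentration ranges set by clinical Cmax where known.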

[1] = second compound 0.0316 µM, first compound 0.0316 µM
[2] = second compound 0.0316 µM, first compound 0.1 µM
[3] = second compound 0.0316 µM, first compound 0.316 µM
[4] = second compound 0.0316 µM, first compound 1 µM
[5] = second compound 0.0316 µM, first compound 3.16 µM
[6] = second compound 0.0316 µM, first compound 10 µM
[7] = second compound 0.1 µM, first compound 0.0316 µM
[8] = second compound 0.1 µM, first compound 0.1 µM
[9] = second compound 0.1 µM, first compound 0.316 µM
[10] = second compound 0.1 µM, first compound 1 µM
[11] = second compound 0.1 µM, first compound 3.16 µM
[12] = second compound 0.1 µM, first compound 10 µM
[13] = second compound 0.316 µM, first compound 0.0316 µM
[14] = second compound 0.316 µM, first compound 0.1 µM
[15] = second compound 0.316 µM, first compound 0.316 µM
[16] = second compound 0.316 µM, first compound 1 µM
[17] = second compound 0.316 µM, first compound 3.16 µM
[18] = second compound 0.316 µM, first compound 10 µM
[19] = second compound 1 µM, first compound 0.0316 µM
[20] = second compound 1 µM, first compound 0.1 µM
[21] = second compound 1 µM, first compound 0.316 µM
[22] = second compound 1 µM, first compound 1 µM
[23] = second compound 1 µM, first compound 3.16 µM
[24] = second compound 1 µM, first compound 10 µM
[25] = second compound 3.16 µM, first compound 0.0316 µM
[26] = second compound 3.16 µM, first compound 0.1 µM
[27] = second compound 3.16 µM, first compound 0.316 µM
[28] = second compound 3.16 µM, first compound 1 µM
[29] = second compound 3.16 µM, first compound 3.16 µM
[30] = second compound 3.16 µM, first compound 10 µM
[31] = second compound 10 µM, first compound 0.0316 µM
[32] = second compound 10 µM, first compound 0.1 µM
[33] = second compound 10 µM, first compound 0.316 µM
[34] = second compound 10 µM, first compound 1 µM
[35] = second compound 10 µM, first compound 3.16 µM
[36] = second compound 10 µM, first compound 10 µM
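Note: spheroids exposed to drugs for seven days before measurement.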
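Throughout, for viability, T/C: percent viability relative to DMSO vehicle control wells taken as 100%.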

Question: How did the IC50 (second compound 0.0316 µM) turn out when CCCS(=O)(=O)Nc1ccc(F)c(C(=O)c2c[nH]c3ncc(-c4ccc(Cl)cc4)cc23)c1F + COC1C(OC(N)=O)C(O)C(Oc2ccc3c(O)c(NC(=O)c4ccc(O)c(CC=C(C)C)c4)c(=O)oc3c2C)OC1(C)C was run?
Answer: Its IC50 is 9520 nM.

Question: And the IC50 (second compound 0.1 µM)?
Answer: The IC50 was over 10000 nM.

Question: What about the IC50 (second compound 0.316 µM) of the same compound?
Answer: Its IC50 is over 10000 nM.

Question: And the IC50 (second compound 1 µM)?
Answer: Its IC50 is over 10000 nM.

Question: What about the IC50 (second compound 3.16 µM) of the same compound?
Answer: The IC50 was over 10000 nM.

Question: And the IC50 (second compound 10 µM)?
Answer: Its IC50 is over 10000 nM.

Question: What about the viability, T/C [1] of the same compound?
Answer: The viability, T/C was 98.9%.

Question: And the viability, T/C [2]?
Answer: Its viability, T/C is 106%.

Question: What about the viability, T/C [3] of the same compound?
Answer: Its viability, T/C is 101%.

Question: What about the viability, T/C [4] of the same compound?
Answer: The viability, T/C was 114%.

Question: What about the viability, T/C [5] of the same compound?
Answer: The viability, T/C was 110%.

Question: What about the viability, T/C [6] of the same compound?
Answer: Its viability, T/C is 47.5%.

Question: And the viability, T/C [7]?
Answer: Its viability, T/C is 98.9%.

Question: What about the viability, T/C [8] of the same compound?
Answer: Its viability, T/C is 118%.

Question: And the viability, T/C [9]?
Answer: The viability, T/C was 103%.

Question: What about the viability, T/C [10] of the same compound?
Answer: The viability, T/C was 113%.

Question: And the viability, T/C [11]?
Answer: The viability, T/C was 109%.

Question: And the viability, T/C [12]?
Answer: The viability, T/C was 54.8%.

Question: What about the viability, T/C [13] of the same compound?
Answer: The viability, T/C was 107%.

Question: And the viability, T/C [14]?
Answer: The viability, T/C was 114%.

Question: And the viability, T/C [15]?
Answer: The viability, T/C was 103%.

Question: And the viability, T/C [16]?
Answer: The viability, T/C was 110%.

Question: What about the viability, T/C [17] of the same compound?
Answer: Its viability, T/C is 103%.

Question: And the viability, T/C [18]?
Answer: Its viability, T/C is 57.3%.

Question: And the viability, T/C [19]?
Answer: The viability, T/C was 120%.

Question: And the viability, T/C [20]?
Answer: Its viability, T/C is 107%.

Question: And the viability, T/C [21]?
Answer: Its viability, T/C is 109%.

Question: And the viability, T/C [22]?
Answer: The viability, T/C was 117%.

Question: And the viability, T/C [23]?
Answer: The viability, T/C was 108%.

Question: And the viability, T/C [24]?
Answer: The viability, T/C was 57.3%.

Question: And the viability, T/C [25]?
Answer: The viability, T/C was 112%.

Question: And the viability, T/C [26]?
Answer: The viability, T/C was 109%.

Question: What about the viability, T/C [27] of the same compound?
Answer: Its viability, T/C is 103%.

Question: And the viability, T/C [28]?
Answer: The viability, T/C was 106%.

Question: And the viability, T/C [29]?
Answer: Its viability, T/C is 105%.

Question: And the viability, T/C [30]?
Answer: The viability, T/C was 62.8%.

Question: And the viability, T/C [31]?
Answer: The viability, T/C was 114%.

Question: What about the viability, T/C [32] of the same compound?
Answer: The viability, T/C was 104%.

Question: And the viability, T/C [33]?
Answer: Its viability, T/C is 97.2%.

Question: And the viability, T/C [34]?
Answer: The viability, T/C was 106%.

Question: What about the viability, T/C [35] of the same compound?
Answer: The viability, T/C was 109%.

Question: And the viability, T/C [36]?
Answer: The viability, T/C was 65.5%.

Question: How did the IC50 (second compound 0.0316 µM) turn out when C#Cc1c(F)ccc2cc(O)cc(-c3ncc4c(N5CC6CCC(C5)N6)nc(OCC56CCCN5CC(F)C6)nc4c3F)c12 (stereo unspecified) + COC1C(OC(N)=O)C(O)C(Oc2ccc3c(O)c(NC(=O)c4ccc(O)c(CC=C(C)C)c4)c(=O)oc3c2C)OC1(C)C was run?
Answer: The IC50 was 108 nM.

Question: And the IC50 (second compound 0.1 µM)?
Answer: The IC50 was 150 nM.

Question: And the IC50 (second compound 0.316 µM)?
Answer: The IC50 was 127 nM.

Question: And the IC50 (second compound 1 µM)?
Answer: Its IC50 is 104 nM.

Question: What about the IC50 (second compound 3.16 µM) of the same compound?
Answer: The IC50 was 131 nM.

Question: And the IC50 (second compound 10 µM)?
Answer: The IC50 was 141 nM.

Question: What about the viability, T/C [1] of the same compound?
Answer: Its viability, T/C is 72.4%.

Question: And the viability, T/C [2]?
Answer: The viability, T/C was 48.9%.

Question: What about the viability, T/C [3] of the same compound?
Answer: Its viability, T/C is 40%.

Question: And the viability, T/C [4]?
Answer: Its viability, T/C is 31.8%.

Question: And the viability, T/C [5]?
Answer: The viability, T/C was 31.9%.

Question: What about the viability, T/C [6] of the same compound?
Answer: Its viability, T/C is 23.4%.

Question: What about the viability, T/C [7] of the same compound?
Answer: Its viability, T/C is 68.2%.

Question: What about the viability, T/C [8] of the same compound?
Answer: Its viability, T/C is 55.6%.

Question: And the viability, T/C [9]?
Answer: Its viability, T/C is 40.1%.

Question: And the viability, T/C [10]?
Answer: Its viability, T/C is 30.3%.

Question: And the viability, T/C [11]?
Answer: The viability, T/C was 39.8%.

Question: What about the viability, T/C [12] of the same compound?
Answer: Its viability, T/C is 25.3%.

Question: And the viability, T/C [13]?
Answer: The viability, T/C was 83.9%.

Question: What about the viability, T/C [14] of the same compound?
Answer: The viability, T/C was 52.4%.

Question: And the viability, T/C [15]?
Answer: Its viability, T/C is 39.2%.

Question: And the viability, T/C [16]?
Answer: Its viability, T/C is 29.7%.

Question: And the viability, T/C [17]?
Answer: The viability, T/C was 27.8%.

Question: And the viability, T/C [18]?
Answer: The viability, T/C was 26.7%.

Question: What about the viability, T/C [19] of the same compound?
Answer: Its viability, T/C is 67.3%.

Question: What about the viability, T/C [20] of the same compound?
Answer: The viability, T/C was 52.3%.

Question: And the viability, T/C [21]?
Answer: Its viability, T/C is 34.7%.

Question: And the viability, T/C [22]?
Answer: The viability, T/C was 38.3%.

Question: And the viability, T/C [23]?
Answer: Its viability, T/C is 31.1%.

Question: And the viability, T/C [24]?
Answer: The viability, T/C was 27.9%.

Question: What about the viability, T/C [25] of the same compound?
Answer: Its viability, T/C is 69.7%.

Question: What about the viability, T/C [26] of the same compound?
Answer: The viability, T/C was 53.4%.

Question: What about the viability, T/C [27] of the same compound?
Answer: The viability, T/C was 41%.

Question: And the viability, T/C [28]?
Answer: The viability, T/C was 29.8%.

Question: What about the viability, T/C [29] of the same compound?
Answer: Its viability, T/C is 32.9%.

Question: What about the viability, T/C [30] of the same compound?
Answer: Its viability, T/C is 24.2%.

Question: And the viability, T/C [31]?
Answer: The viability, T/C was 63%.

Question: What about the viability, T/C [32] of the same compound?
Answer: The viability, T/C was 56.6%.

Question: What about the viability, T/C [33] of the same compound?
Answer: The viability, T/C was 35%.

Question: And the viability, T/C [34]?
Answer: Its viability, T/C is 30.1%.

Question: What about the viability, T/C [35] of the same compound?
Answer: The viability, T/C was 26.6%.

Question: What about the viability, T/C [36] of the same compound?
Answer: Its viability, T/C is 22.6%.

Question: Which results are given for CCc1c2c(nc3ccc(O)cc13)-c1cc3c(c(=O)n1C2)COC(=O)[C@]3(O)CC + COC1C(OC(N)=O)C(O)C(Oc2ccc3c(O)c(NC(=O)c4ccc(O)c(CC=C(C)C)c4)c(=O)oc3c2C)OC1(C)C?
Answer: IC50 (second compound 0.0316 µM): < 3.16 nM; IC50 (second compound 0.1 µM): < 3.16 nM; IC50 (second compound 0.316 µM): < 3.16 nM; IC50 (second compound 1 µM): < 3.16 nM; IC50 (second compound 3.16 µM): < 3.16 nM; IC50 (second compound 10 µM): < 3.16 nM; viability, T/C (second compound 0.0316 µM, first compound 0.00316 µM): 37.3%; viability, T/C (second compound 0.0316 µM, first compound 0.01 µM): 16.3%; viability, T/C [1]: 8.76%; viability, T/C [2]: 4.34%; viability, T/C [3]: 4.57%; viability, T/C [4]: 0.92%; viability, T/C (second compound 0.1 µM, first compound 0.00316 µM): 38.9%; viability, T/C (second compound 0.1 µM, first compound 0.01 µM): 13.7%; viability, T/C [7]: 10.5%; viability, T/C [8]: 6.92%; viability, T/C [9]: 2.75%; viability, T/C [10]: 1.04%; viability, T/C (second compound 0.316 µM, first compound 0.00316 µM): 37.1%; viability, T/C (second compound 0.316 µM, first compound 0.01 µM): 15.8%; viability, T/C [13]: 14.7%; viability, T/C [14]: 4.68%; viability, T/C [15]: 2.98%; viability, T/C [16]: 1.19%; viability, T/C (second compound 1 µM, first compound 0.00316 µM): 34.1%; viability, T/C (second compound 1 µM, first compound 0.01 µM): 14.2%; viability, T/C [19]: 12.5%; viability, T/C [20]: 6.32%; viability, T/C [21]: 3.96%; viability, T/C [22]: 3.08%; viability, T/C (second compound 3.16 µM, first compound 0.00316 µM): 31.2%; viability, T/C (second compound 3.16 µM, first compound 0.01 µM): 13.9%; viability, T/C [25]: 9.37%; viability, T/C [26]: 4.13%; viability, T/C [27]: 2.03%; viability, T/C [28]: 2.74%; viability, T/C (second compound 10 µM, first compound 0.00316 µM): 29.1%; viability, T/C (second compound 10 µM, first compound 0.01 µM): 15.1%; viability, T/C [31]: 11.4%; viability, T/C [32]: 6.62%; viability, T/C [33]: 3.37%; viability, T/C [34]: 1.53%
